Literature values, collected in publication PMC4220649 (Blood Cancer Journal, 2014).

Test system: patients with lymphoma
Conditions: IV bortezomib in lymphoma; cited from earlier work

SMILES: CC(C)C[C@H](NC(=O)[C@H](Cc1ccccc1)NC(=O)c1cnccn1)B(O)O [bortezomib]
- Grade 3 PN rates: 3–13%
- Overall rates of PN: 17–55%
